≈ marks a conversion by molar mass, not a printed value.

One series deals with Pseudomonas fluorescens. Put plainly: Antibacterial activity against Pseudomonas fluorescens NCIM 2036 after 8 hrs. Type of series: functional, organism-based. The following applies: NCIM 2036, 8 h.
A further series relates to Bacillus subtilis. Put plainly: Antibacterial activity against Bacillus subtilis NCIM 2079 after 12 hrs. It counts as functional, organism-based. The following applies: NCIM 2079, 12 h.
The nature of series [1]: Selectivity index, ratio of GI50 for human PANC1 cells to MIC for dormant state Mycobacterium bovis BCG ATCC 35734. Type of series: toxicity, cell-based, PANC-1. The following applies: read-out: Selectivity Index.
Series [2] in a line: Selectivity index, ratio of GI50 for human A549 cells to MIC for dormant state Mycobacterium bovis BCG ATCC 35734. Type of series: toxicity, cell-based. The following applies: read-out: Selectivity Index.
Series [3] can be described thus: Selectivity index, ratio of GI50 for human PANC1 cells to MIC for active state Mycobacterium bovis BCG ATCC 35734. It counts as toxicity, cell-based, PANC-1. The following applies: read-out: Selectivity Index.
Another series relates to A549. The experiment in a line: (§1) Cytotoxicity against human A549 cells after 48 hrs by MTT assay. The following applies: a549, 48 h. Type of series: cell-based.
The nature of series [4]: as §1. Type of series: cell-based. The following applies: A549 cells.
A short description of series [5]: Selectivity index, ratio of GI50 for human A549 cells to MIC for active state Mycobacterium bovis BCG ATCC 35734. It counts as toxicity, cell-based. The following applies: read-out: Selectivity Index.
Series [6] in a line: Selectivity index, ratio of GI50 for human HeLa cells to MIC for dormant state Mycobacterium bovis BCG ATCC 35734. Type of series: toxicity, cell-based. The following applies: read-out: Selectivity Index.
In series [7] the test system is Mycobacterium tuberculosis. The experiment in a line: Antitubercular activity against dormant state Mycobacterium tuberculosis H37Ra assessed as viable cells after 12 days by XTT reduction menadione assay. It counts as functional, organism-based. The following applies: 288 h. (Tetrazolium dyes change colour on reduction, which living cells bring about.)
A further series concerns Escherichia coli. The experiment in a line: Antibacterial activity against Escherichia coli NCIM 2688 after 8 hrs. It counts as functional, organism-based. The following applies: NCIM 2688, 8 h.
Series [8] is described as follows: Selectivity index, ratio of GI50 for human HeLa cells to MIC for active state Mycobacterium bovis BCG ATCC 35734. It counts as toxicity, cell-based. The following applies: read-out: Selectivity Index.
Series [9] is described as follows: (§2) Cytotoxicity against human HeLa cells after 72 hrs by MTT assay. It counts as cell-based. The following applies: HeLa cells.
A further series deals with HeLa. The description is as §2. It counts as cell-based. The following applies: hela, 72 h.
For series [10], the system named is Mycobacterium tuberculosis. Put plainly: Antitubercular activity against active state Mycobacterium tuberculosis H37Ra assessed as viable cells after 8 days by XTT reduction menadione assay. It counts as functional, organism-based. The following applies: 192 h.
A short description of series [11]: Cytotoxicity against human PANC1 cells after 48 hrs by MTT assay. Type of series: cell-based, PANC-1.
The next series concerns Staphylococcus aureus. Put plainly: Antibacterial activity against Staphylococcus aureus NCIM 2010 after 12 hrs. It counts as functional, organism-based. The following applies: NCIM 2010, 12 h.

The term IC50 denotes the concentration that inhibits the measured activity by half. A word on the MIC: it is the least concentration at which growth counts as inhibited. As usually defined, the GI50 is the concentration at which growth is held to half of that of the control. On to `O=C(/C=C\c1ccc(Cl)cc1Cl)N1N=C(c2ccncc2)OC1c1c[nH]c2ccccc12` (centres undefined), for which the IC50 in the series on Pseudomonas fluorescens was over 256 µg/mL; in the series with Bacillus subtilis, over 256 µg/mL; in [7], 27.5 µg/mL (≈ 59.4 µM); in the series with Escherichia coli, over 256 µg/mL; in series [10], 29.3 µg/mL (≈ 63.3 µM); with Staphylococcus aureus it was over 256 µg/mL. The MIC against Pseudomonas fluorescens is over 256 µg/mL; against Bacillus subtilis, over 256 µg/mL; in series [7], over 30 µg/mL; against Escherichia coli it was over 256 µg/mL; in [10], over 30 µg/mL; in the series with Staphylococcus aureus, over 256 µg/mL. Further, the selectivity ratio in series [1] is over 6.03; in series [2], over 6.03; in series [3], over 5.8; in series [5], over 5.8; in series [6], 5.9; in series [8], 5.68. Moreover, the GI90 in the series on A549 was over 30 µg/mL; in the series on HeLa, over 30 µg/mL; in series [11] (panc-1, 48 h) it was over 30 µg/mL. Further, the GI50 at 48 h in series [4] and in series [11] (PANC1 cells) was over 30 µg/mL throughout. The GI50 at 72 h in series [9] worked out at 29.3 µg/mL (≈ 63.3 µM).

Source of the values: ChEMBL document CHEMBL3779770, “Synthesis, biological evaluation and molecular docking study of some novel indole and pyridine based 1,3,4-oxadiazole derivatives as potential antitubercular agents” (Bioorg Med Chem Lett, 2016).
